Laboratory results from the NIST ThermoML archive (doi:10.1021/je1011136).
Numbers after ± are expanded uncertainties.

Columns and labels:
[1] = Crystal; DTA
[2] = Molar enthalpy of transition or fusion; conditions: Crystal; DSC

SMILES: COc1cc(CNC(=O)CCCCCCC(C)C)ccc1O [N-(4-hydroxy-3-methoxybenzyl)-8-methylnonanamide]
- Normal melting temperature [1]: 59.4 ± 1.1 °C
- Molar enthalpy of transition or fusion [2]: 4.54 ± 0.136 kcal/mol
